The source of these data is patent publication US11208412B2 (DAEGU-GYEONGBUK MEDICAL INNOVATION FOUNDATION, priority 2017, dated 2021).

Assay in all cases: Kinase selectivity, DiscoverX scanMAX Kinase assay panel (% control)
Holding throughout (assay type): binding

Assay [1] has as its target T1, kinases of the scanMAX Kinase assay panel (Homo sapiens, UniProt P25098).
T1 construct: purchased DiscoverX Co. (contract measurement) scanMAX Kinase assay panel
T1 sequence (P25098 1-689): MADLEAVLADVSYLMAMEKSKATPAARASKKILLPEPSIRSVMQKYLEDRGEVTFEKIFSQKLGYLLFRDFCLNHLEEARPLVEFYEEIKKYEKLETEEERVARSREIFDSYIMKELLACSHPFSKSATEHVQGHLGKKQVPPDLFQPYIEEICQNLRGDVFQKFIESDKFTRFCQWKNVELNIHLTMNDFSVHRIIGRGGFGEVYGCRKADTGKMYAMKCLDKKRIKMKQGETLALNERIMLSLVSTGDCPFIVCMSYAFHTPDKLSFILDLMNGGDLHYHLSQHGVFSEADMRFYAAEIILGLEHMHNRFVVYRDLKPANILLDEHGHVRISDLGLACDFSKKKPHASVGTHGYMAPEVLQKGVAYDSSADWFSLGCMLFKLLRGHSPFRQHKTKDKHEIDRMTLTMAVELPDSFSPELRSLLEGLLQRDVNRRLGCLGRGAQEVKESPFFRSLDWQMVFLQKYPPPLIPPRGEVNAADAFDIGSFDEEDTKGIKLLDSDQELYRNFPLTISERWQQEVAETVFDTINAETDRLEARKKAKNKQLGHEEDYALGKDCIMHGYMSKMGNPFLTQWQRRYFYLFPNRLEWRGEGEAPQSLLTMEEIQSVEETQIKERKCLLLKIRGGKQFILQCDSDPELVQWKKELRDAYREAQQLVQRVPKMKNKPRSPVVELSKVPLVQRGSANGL
The conditions noted are these: GRK2; 1 uM. The method, boiled down:
(§1)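 Binding-panel profiling at one concentration, 1 uM in DMSO; values are % of DMSO control after subtracting the positive-control floor. Less than 35% means activity on that kinase.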

Assay [2] deals with T2, kinases of the scanMAX Kinase assay panel (Homo sapiens, UniProt Q05655).
T2 construct: purchased DiscoverX Co. (contract measurement) scanMAX Kinase assay panel
The following applies: PRKCD; 1 uM. The method, boiled down: as §1

The target of assay [3] is T3, kinases of the scanMAX Kinase assay panel (Homo sapiens, UniProt Q6P2M8).
T3 construct: purchased DiscoverX Co. (contract measurement) scanMAX Kinase assay panel
The conditions noted are these: CAMK1B; 1 uM. The method, boiled down:
as §1

Assay [4] concerns the target T4, kinases of the scanMAX Kinase assay panel (Homo sapiens, UniProt Q6XUX3).
T4 construct: purchased DiscoverX Co. (contract measurement) scanMAX Kinase assay panel
T4 sequence (Q6XUX3 1-929): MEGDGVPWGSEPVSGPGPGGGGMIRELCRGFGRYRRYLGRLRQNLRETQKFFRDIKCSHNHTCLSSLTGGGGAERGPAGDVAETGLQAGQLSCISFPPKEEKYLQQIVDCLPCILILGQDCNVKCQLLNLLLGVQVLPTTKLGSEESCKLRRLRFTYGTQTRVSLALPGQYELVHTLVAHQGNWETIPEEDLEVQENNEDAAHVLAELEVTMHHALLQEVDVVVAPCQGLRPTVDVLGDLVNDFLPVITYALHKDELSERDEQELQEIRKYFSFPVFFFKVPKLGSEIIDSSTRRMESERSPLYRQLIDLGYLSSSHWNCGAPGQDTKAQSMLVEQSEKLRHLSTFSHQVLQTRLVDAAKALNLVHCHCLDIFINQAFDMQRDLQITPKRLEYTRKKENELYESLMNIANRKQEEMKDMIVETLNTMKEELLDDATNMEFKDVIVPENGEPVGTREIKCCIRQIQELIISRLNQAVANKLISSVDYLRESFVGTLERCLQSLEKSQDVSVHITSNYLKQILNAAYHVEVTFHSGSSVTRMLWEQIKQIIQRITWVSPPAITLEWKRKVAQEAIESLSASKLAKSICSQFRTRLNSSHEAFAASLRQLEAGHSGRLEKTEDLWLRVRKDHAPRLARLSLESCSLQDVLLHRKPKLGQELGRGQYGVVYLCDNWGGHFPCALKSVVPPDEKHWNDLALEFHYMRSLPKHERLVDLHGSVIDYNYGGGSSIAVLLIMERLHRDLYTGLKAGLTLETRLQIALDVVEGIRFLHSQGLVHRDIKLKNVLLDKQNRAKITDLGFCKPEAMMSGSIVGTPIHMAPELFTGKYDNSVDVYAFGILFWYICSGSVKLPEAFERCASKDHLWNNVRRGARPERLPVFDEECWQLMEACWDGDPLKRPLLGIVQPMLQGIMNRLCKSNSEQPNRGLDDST
The conditions noted are these: kinase RIPK5; 1 uM in DMSO. Summed up:
as §1

Assay [5] deals with T5, kinases of the scanMAX Kinase assay panel (Homo sapiens, UniProt Q13131).
T5 construct: purchased DiscoverX Co. (contract measurement) scanMAX Kinase assay panel
The following applies: AMPK-alpha1; 1 uM. The method, boiled down: as §1

Assay [6] concerns the target T6, kinases of the scanMAX Kinase assay panel (Homo sapiens, UniProt P35626).
T6 construct: purchased DiscoverX Co. (contract measurement) scanMAX Kinase assay panel
T6 sequence (P35626 1-688): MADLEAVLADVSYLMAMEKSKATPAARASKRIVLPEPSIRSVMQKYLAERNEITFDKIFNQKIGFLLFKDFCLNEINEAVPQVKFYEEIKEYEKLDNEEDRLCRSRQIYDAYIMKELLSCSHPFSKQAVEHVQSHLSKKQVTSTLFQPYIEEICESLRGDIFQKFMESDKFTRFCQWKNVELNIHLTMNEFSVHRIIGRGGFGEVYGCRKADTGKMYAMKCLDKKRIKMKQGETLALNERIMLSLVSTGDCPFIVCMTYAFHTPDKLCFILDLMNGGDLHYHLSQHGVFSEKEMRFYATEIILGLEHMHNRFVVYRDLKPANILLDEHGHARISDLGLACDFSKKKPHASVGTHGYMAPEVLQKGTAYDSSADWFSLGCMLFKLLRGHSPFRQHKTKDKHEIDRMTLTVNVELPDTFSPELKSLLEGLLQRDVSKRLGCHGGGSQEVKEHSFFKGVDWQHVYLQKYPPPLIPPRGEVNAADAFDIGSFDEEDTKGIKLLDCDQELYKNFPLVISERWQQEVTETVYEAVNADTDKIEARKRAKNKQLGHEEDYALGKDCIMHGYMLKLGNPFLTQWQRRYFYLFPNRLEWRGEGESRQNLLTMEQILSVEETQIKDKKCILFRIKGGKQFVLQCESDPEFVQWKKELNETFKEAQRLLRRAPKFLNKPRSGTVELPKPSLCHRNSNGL
The following applies: GRK3; 1 uM. The method, boiled down: as §1

The structures appear in SMILES notation.

T5 sequence (Q13131 whole entry): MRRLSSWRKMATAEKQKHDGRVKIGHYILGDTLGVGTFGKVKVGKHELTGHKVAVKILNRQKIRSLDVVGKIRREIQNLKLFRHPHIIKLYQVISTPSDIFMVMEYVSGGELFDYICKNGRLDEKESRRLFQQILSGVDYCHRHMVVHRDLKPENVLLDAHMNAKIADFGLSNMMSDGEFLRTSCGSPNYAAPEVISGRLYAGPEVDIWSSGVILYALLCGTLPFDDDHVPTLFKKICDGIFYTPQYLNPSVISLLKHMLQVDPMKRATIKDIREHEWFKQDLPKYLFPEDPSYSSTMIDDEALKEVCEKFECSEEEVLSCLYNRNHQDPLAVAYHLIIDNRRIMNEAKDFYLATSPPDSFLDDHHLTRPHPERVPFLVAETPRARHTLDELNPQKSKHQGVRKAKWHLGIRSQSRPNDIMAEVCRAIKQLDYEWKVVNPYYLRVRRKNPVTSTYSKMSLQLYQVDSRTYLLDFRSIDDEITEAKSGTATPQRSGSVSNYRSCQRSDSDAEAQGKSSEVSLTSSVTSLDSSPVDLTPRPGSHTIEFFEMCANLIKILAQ
T3 sequence (Q6P2M8 whole entry): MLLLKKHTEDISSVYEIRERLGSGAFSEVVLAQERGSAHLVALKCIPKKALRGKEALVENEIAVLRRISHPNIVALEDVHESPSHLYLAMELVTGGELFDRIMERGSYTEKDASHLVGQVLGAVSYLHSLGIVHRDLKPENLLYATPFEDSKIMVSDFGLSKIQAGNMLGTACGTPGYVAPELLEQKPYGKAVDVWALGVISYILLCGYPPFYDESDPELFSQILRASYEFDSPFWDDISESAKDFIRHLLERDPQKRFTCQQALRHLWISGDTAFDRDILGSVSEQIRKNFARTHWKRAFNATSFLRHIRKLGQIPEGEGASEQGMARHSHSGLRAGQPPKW
T2 sequence (Q05655 whole entry): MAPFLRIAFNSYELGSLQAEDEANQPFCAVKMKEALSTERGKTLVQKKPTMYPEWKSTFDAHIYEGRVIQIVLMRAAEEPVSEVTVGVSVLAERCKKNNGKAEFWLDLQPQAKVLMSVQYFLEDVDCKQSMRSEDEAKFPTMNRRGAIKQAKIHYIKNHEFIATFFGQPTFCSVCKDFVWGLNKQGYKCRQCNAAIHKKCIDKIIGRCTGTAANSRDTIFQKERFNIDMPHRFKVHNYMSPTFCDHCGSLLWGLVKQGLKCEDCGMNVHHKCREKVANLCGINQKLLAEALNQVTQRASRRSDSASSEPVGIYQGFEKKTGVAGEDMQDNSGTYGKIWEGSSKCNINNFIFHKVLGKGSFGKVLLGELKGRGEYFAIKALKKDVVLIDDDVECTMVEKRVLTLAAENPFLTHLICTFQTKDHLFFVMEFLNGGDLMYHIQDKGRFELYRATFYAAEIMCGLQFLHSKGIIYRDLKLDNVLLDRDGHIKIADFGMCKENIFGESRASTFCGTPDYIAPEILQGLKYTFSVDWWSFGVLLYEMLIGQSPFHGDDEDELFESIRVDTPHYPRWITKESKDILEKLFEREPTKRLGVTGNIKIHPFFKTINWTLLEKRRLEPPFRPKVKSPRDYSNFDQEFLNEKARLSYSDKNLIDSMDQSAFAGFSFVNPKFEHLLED

As for `CC1(Nc2nc(Nc3cnn([C@H]4CCN(C5COC5)C[C@@H]4F)c3Cl)nc3[nH]cc(C#N)c23)CC1` [Example 52, 2-((5-chloro-1-((3S,4S)-3-fluoro-1-(oxetane-3-yl)piperidine-4-yl)-1H-pyrazole-4-yl)amino)((1-methylcyclopropyl)amino)-7H-pyrrolo[2,3-d]pyrimidine-5-carbonitrile], the remaining binding at 1 µM in assay [1] worked out at 45%; in assay [2], 81%; in assay [3] it was 64%; in assay [4], 3.7%; in assay [5], 4.3%; in assay [6], 53%.

For `CCNc1nc(Nc2ccc(C(=O)N3CCC(N4CCOCC4)CC3)cc2OC)nc2[nH]cc(C(F)(F)F)c12` [Example 104, (4-((4-(ethylamino)-5-(trifluoromethyl)-7H-pyrrolo[2,3-d]pyrimidine-2-yl)amino)-3-methoxyphenyl)(4-morpholinopiperidine-1-yl)methanone], the remaining binding at 1 µM in assay [1] was determined as 96%; in assay [2] it was 100%; in assay [3] it was 21%; in assay [4], 18%; in assay [5], 100%; in assay [6], 97%.

Regarding `CNc1nc(Nc2ccc(C(=O)N3CCOCC3)cc2OC)nc2[nH]cc(C#N)c12` [Example 1, 2-((2-methoxy-4-(morpholine-4-carbonyl)phenyl)amino)-4-(methylamino)-7H-pyrrolo[2,3-d]pyrimidine-5-carbonitrile], the remaining binding at 1 µM was 97% in assay [1]; 100% in assay [2]; 45% in assay [3]; 10% in assay [4]; 87% in assay [5]; 99% in assay [6].
